Experimental data taken from PubChem BioAssay AID1963862 (Molecular Pharmacology Branch, DTP, NCI, 2024).
pIC50: −log10 of the molar value.

Test system: KRAS patient-derived spheroids with HUVEC/MSC, viability
Experiment: Anticancer human tumor 941728-121-R-J1-PDC patient-derived lung adenocarcinoma cell line growth inhibition [KRAS2]
Conditions: for viability, T/C: stronger effect = lower value
Excerpt: Multicellular complex tumor spheroid response to RAS pathway inhibitors in combination with a targeted agents in patient-derived cell lines with oncogenic KRAS variants from multiple cancer types
A high-throughput screen of multi-cell type tumor spheroids was designed to identify active combinations of targeted small molecules and KRAS pathway inhibitors. Complex spheroids include a stromal component modeled by human endothelial cells (HUVEC) and fibroblasts modeled by human mesenchymal stem cells (MSCs). The concentration ranges selected for each drug and investigational agent were based upon clinically achievable concentrations if the clinical Cmax of the agent was known.
Compounds. The drugs and investigational agents: BI-3406 (NSC825286), BAY-293 (NSC824723), batoprotafib (TNO155; NSC825523), sotorasib (AMG 510; NSC818433), MRTX1257 (NSC819558), elimusertib (BAY 1895344; NSC800525), molibresib (GSK525762; NSC774829), temuterkib (LY3214996; NSC803410), venetoclax (NSC766270), alisertib (NSC759677), olaparib (NSC753686), talazoparib (NSC767125), erdafitinib (NSC781556), ipatasertib (NSC767898), cabozantinib (NSC761068), nintedanib (NSC756659), abemaciclib (NSC768073), docetaxel (NSC628503), trametinib (NSC758246), and sapanisertib (NSC764658) were obtained from the National Cancer Institute (NCI) Developmental Therapeutics Program Chemical Repository. The FDA-approved anticancer drug set is available from the Developmental Therapeutics Program. […] The stock solutions were prepared in dimethyl sulfoxide (DMSO, Sigma-Aldrich, St. Louis, MO, cat. D2650) at 800-fold the tested concentration and stored at -70 degrees C prior to their use. All drugs and investigational agents were tested over a range starting from a high concentration at or near the clinical Cmax and decreasing in half-log increments. If the clinical Cmax for an agent had not been determined, the highest concentration tested was 10 microM.
Cell Culture. All cells were maintained in an incubator at 37 degrees C and 5% CO2 with 95% humidity. The PDC lines were cultured according to standard operating procedures established by the NCI PDMR (https://pdmr.cancer.gov/sops/default.htm). Briefly, all PDCs were thawed and cultured in Matrigel-coated flasks prepared with a working solution of 1X Ham's F-12 nutrient mix, without supplementation (Invitrogen, Waltham, MA, cat. 11765054), 100 U/mL penicillin-streptomycin (Invitrogen, cat. 15140122), and 2.5% Matrigel (Corning Inc., Corning, NY, cat. 354248) for the first three passages. All PDCs were cultured in complete DMEM/F-12 media containing advanced DMEM/F-12 (Invitrogen, cat. 12634028), 4.9% defined fetal bovine serum, heat inactivated (HyClone Laboratories Inc., Logan, UT, cat. SH30070.03HI), 389 ng/mL hydrocortisone (Sigma-Aldrich, cat. H4001), 9.7 ng/mL human EGF recombinant protein (Invitrogen, cat. PHG0313), 23.4 microg/mL adenine (Sigma-Aldrich, cat. A2786), 97.3 U/mL penicillin-streptomycin (Invitrogen, cat. 15140122), 1.9 mM L-glutamine (Invitrogen, cat. 25030081), and 9.7 microM Y-27632 dihydrochloride (Tocris Bioscience, Bristol, United Kingdom, cat. 1254). The PDCs were cultured in complete DMEM/F12 media without 9.7 microM Y-27632 dihydrochloride for at least two passages prior to the screen. The established cell line HOP-62 was cultured in RPMI 1640 medium, HEPES (Invitrogen, cat. 22400105) with 10% defined fetal bovine serum (HyClone Laboratories Inc., cat. SH30070.03) and 2 mM L-glutamine (Invitrogen, cat. 25030081). The pooled donor HUVEC were cultured in endothelial cell growth medium 2 (PromoCell, Heidelberg, Germany, cat. C-22011) and the hMSC were cultured in mesenchymal stem cell growth medium 2 (PromoCell, cat. C-28009). For all experiments, HUVEC and hMSC were used at passages </=5, while the malignant cell lines were used at passages </=15. […]

[1] = curve of first compound, second compound 0.1 µM
[2] = curve of first compound, second compound 0.316 µM
[3] = curve of first compound, second compound 1 µM
[4] = curve of first compound, second compound 3.16 µM
[5] = curve of first compound, second compound 10 µM
[6] = second compound 0.1 µM, first compound 0.01 µM
[7] = second compound 0.1 µM, first compound 0.0316 µM
[8] = second compound 0.316 µM, first compound 0.01 µM
[9] = second compound 0.316 µM, first compound 0.0316 µM
[10] = second compound 1 µM, first compound 0.01 µM
[11] = second compound 1 µM, first compound 0.0316 µM
[12] = second compound 3.16 µM, first compound 0.01 µM
[13] = second compound 3.16 µM, first compound 0.0316 µM
[14] = second compound 10 µM, first compound 0.01 µM
[15] = second compound 10 µM, first compound 0.0316 µM
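Note: spheroids exposed to agents for seven days before readout.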

In the case of `CC(=O)Nc1cccc(-n2c(=O)n(C3CC3)c(=O)c3c(Nc4ccc(I)cc4F)n(C)c(=O)c(C)c32)c1` + COc1cc2nc(C)nc(NC(C)c3cc(N)cc(C(F)(F)F)c3)c2cc1OC1CCOC1, the pIC50 [1] was 9.89, the pIC50 [2] was greater than 10.00 and the pIC50 [3] was greater than 10.00. The pIC50 [4] was greater than 10.00, the pIC50 [5] was greater than 10.00 and the viability, T/C (second compound 0.1 µM, first compound 0.0001 µM) was 51.3%. For the same compound, the viability, T/C (second compound 0.1 µM, first compound 0.000316 µM) was 47.6%, the viability, T/C (second compound 0.1 µM, first compound 0.001 µM) was 39.7% and the viability, T/C (second compound 0.1 µM, first compound 0.00316 µM) was 39.5%. The viability, T/C [6] was 39.4%, the viability, T/C [7] was 29.4% and the viability, T/C (second compound 0.316 µM, first compound 0.0001 µM) was 44.3%. It also gave a viability, T/C (second compound 0.316 µM, first compound 0.000316 µM) of 40.5%, a viability, T/C (second compound 0.316 µM, first compound 0.001 µM) of 40% and a viability, T/C (second compound 0.316 µM, first compound 0.00316 µM) of 35.8%. For the same compound, the viability, T/C [8] was 36.3%, the viability, T/C [9] was 29.9% and the viability, T/C (second compound 1 µM, first compound 0.0001 µM) was 41.1%. For the same compound, the viability, T/C (second compound 1 µM, first compound 0.000316 µM) was 40.8%, the viability, T/C (second compound 1 µM, first compound 0.001 µM) was 38.1% and the viability, T/C (second compound 1 µM, first compound 0.00316 µM) was 30.6%. For the same compound, the viability, T/C [10] was 31.1%, the viability, T/C [11] was 25.7% and the viability, T/C (second compound 3.16 µM, first compound 0.0001 µM) was 32%. For the same compound, the viability, T/C (second compound 3.16 µM, first compound 0.000316 µM) was 29%, the viability, T/C (second compound 3.16 µM, first compound 0.001 µM) was 24.6% and the viability, T/C (second compound 3.16 µM, first compound 0.00316 µM) was 18.8%. The viability, T/C [12] was 21.8%, the viability, T/C [13] was 17.7% and the viability, T/C (second compound 10 µM, first compound 0.0001 µM) was 6.11%. For the same compound, the viability, T/C (second compound 10 µM, first compound 0.000316 µM) was 3.95%, the viability, T/C (second compound 10 µM, first compound 0.001 µM) was 3.66% and the viability, T/C (second compound 10 µM, first compound 0.00316 µM) was 2.67%. The viability, T/C [14] was 2.71% and the viability, T/C [15] was 2.71%.

For `CC1COCCN1c1cc(-c2ccnn2C)c2ccnc(-c3ccn[nH]3)c2n1` (stereo not given) + CC1OCC2(CCN(c3cnc(Sc4ccnc(N)c4Cl)c(N)n3)CC2)C1N, the pIC50 [1] was greater than 8.00, the pIC50 [2] was greater than 8.00 and the pIC50 [3] was greater than 8.00. For the same compound, the pIC50 [4] was greater than 8.00, the pIC50 [5] was greater than 8.00 and the viability, T/C [6] was 43.9%. For the same compound, the viability, T/C [7] was 28.7%, the viability, T/C (second compound 0.1 µM, first compound 0.1 µM) was 27.2% and the viability, T/C (second compound 0.1 µM, first compound 0.316 µM) was 26.4%. For the same compound, the viability, T/C (second compound 0.1 µM, first compound 1 µM) was 25.4%, the viability, T/C (second compound 0.1 µM, first compound 3.16 µM) was 28.2% and the viability, T/C [8] was 32.9%. For the same compound, the viability, T/C [9] was 30.4%, the viability, T/C (second compound 0.316 µM, first compound 0.1 µM) was 25.3% and the viability, T/C (second compound 0.316 µM, first compound 0.316 µM) was 23.1%. The viability, T/C (second compound 0.316 µM, first compound 1 µM) was 19.9%, the viability, T/C (second compound 0.316 µM, first compound 3.16 µM) was 21.6% and the viability, T/C [10] was 29.5%. The viability, T/C [11] was 26.9%, the viability, T/C (second compound 1 µM, first compound 0.1 µM) was 26.5% and the viability, T/C (second compound 1 µM, first compound 0.316 µM) was 22.3%. It also gave a viability, T/C (second compound 1 µM, first compound 1 µM) of 15.8%, a viability, T/C (second compound 1 µM, first compound 3.16 µM) of 15.8% and a viability, T/C [12] of 26.8%. For the same compound, the viability, T/C [13] was 25.3%, the viability, T/C (second compound 3.16 µM, first compound 0.1 µM) was 22.4% and the viability, T/C (second compound 3.16 µM, first compound 0.316 µM) was 18.8%. The viability, T/C (second compound 3.16 µM, first compound 1 µM) was 15.9%, the viability, T/C (second compound 3.16 µM, first compound 3.16 µM) was 13.7% and the viability, T/C [14] was 25.4%. It also gave a viability, T/C [15] of 22.9%, a viability, T/C (second compound 10 µM, first compound 0.1 µM) of 19.2% and a viability, T/C (second compound 10 µM, first compound 0.316 µM) of 14.4%. For the same compound, the viability, T/C (second compound 10 µM, first compound 1 µM) was 12.9% and the viability, T/C (second compound 10 µM, first compound 3.16 µM) was 10.9%.

In the case of `C=CC(=O)N1CCN(c2nc(OCC3CCCN3C)nc3c2CCN(c2cccc4cccc(C)c24)C3)CC1CC#N` (stereo not given), the viability, T/C (compound 0.1 µM) was 30.3% [middle of 16 runs], the viability, T/C (compound 1 µM) was 27.2% [middle of 17 runs] and the pIC50 (compound alone, run of 07/12/2021) was greater than 7.50. For the same compound, the pIC50 (compound alone, run of 07/19/2021) was greater than 7.50 and the pIC50 (compound alone, run of 07/26/2021) was greater than 7.50.
